Assays:
Test in all cases: selective drug sensitivity score (sDSS, relative to normal bone marrow) (sDSS (score)); higher = more potent and effective on the cell line relative to normal bone marrow cells
Details in all cases: 72 h
ALL-SIL = system: ALL-SIL
CCRF-CEM = system: CCRF-CEM
COG-LL-319h = system: COG-LL-319h
COG-LL-332h = system: COG-LL-332h
COG-LL-355h = system: COG-LL-355h
COG-LL-394h = system: COG-LL-394h
DND-41 = system: DND-41
HPB-ALL = system: HPB-ALL
KASUMI-10 = system: KASUMI-10
KASUMI-2 = system: KASUMI-2
KASUMI-9 = system: KASUMI-9
LC4-1 = system: LC4-1
MN-60 = system: MN-60
MOLT-16 = system: MOLT-16
NALL-1 = system: NALL-1
P12-ICHIKAWA = system: P12-ICHIKAWA
PEER = system: PEER
REH = system: REH
SUP-B15 = system: SUP-B15
TMD5 = system: TMD5
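Also: ALL cell lines in 384-well plates, five doses spanning 10,000-fold, each plate scaled between vehicle and 100 µmol/L benzalkonium chloride controls, sDSS an adapted area-under-curve metric.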

Row | SMILES | selective drug sensitivity score (ALL-SIL) | selective drug sensitivity score (CCRF-CEM) | selective drug sensitivity score (COG-LL-319h) | selective drug sensitivity score (COG-LL-332h) | selective drug sensitivity score (COG-LL-355h) | selective drug sensitivity score (COG-LL-394h) | selective drug sensitivity score (DND-41) | selective drug sensitivity score (HPB-ALL) | selective drug sensitivity score (KASUMI-10) | selective drug sensitivity score (KASUMI-2) | selective drug sensitivity score (KASUMI-9) | selective drug sensitivity score (LC4-1) | selective drug sensitivity score (MN-60) | selective drug sensitivity score (MOLT-16) | selective drug sensitivity score (NALL-1) | selective drug sensitivity score (P12-ICHIKAWA) | selective drug sensitivity score (PEER) | selective drug sensitivity score (REH) | selective drug sensitivity score (SUP-B15) | selective drug sensitivity score (TMD5)
1 | Nc1cc(F)ccc1NC(=O)c1ccc(CNC(=O)/C=C/c2cccnc2)cc1 [Tucidinostat] (top concentration 10000 nM) | 10.4 | 2.44 | 12 | -2.76 | 0.64 | -3.86 | 1.04 | 3.44 | 3.04 | 8.84 | 7.24 | 3.94 | 1.54 | 4.54 | -2.76 | 4.04 | 5.44 | 3.34 | 5.34 | 4.14
2 | Cn1cnc2c(F)c(Nc3ccc(Br)cc3Cl)c(C(=O)NOCCO)cc21 [Selumetinib] (top concentration 10000 nM) | -4.1 | 2 | -1.8 | -2.3 | 4.7 | -3 | 0.4 | -4.1 | -3.5 | 7.5 | 2.2 | 0.7 | -4.1 | -3.4 | -4.1 | 0.3 | -1.6 | -4.1 | 5.4 | 3.1
3 | COc1c(C)cnc(Cn2cnc3c(Cl)nc(N)nc32)c1C [BIIB021] (top concentration 10000 nM) | 5.88 | 7.88 | 1.78 | 8.98 | 0.38 | -4.02 | 8.58 | 3.58 | 8.78 | 3.88 | -1.22 | 0.98 | -2.62 | 12.7 | 1.08 | 2.28 | 3.58 | 5.68 | 4.48 | 1.58
4 | CN(c1ncccc1CNc1nc(Nc2ccc3c(c2)CC(=O)N3)ncc1C(F)(F)F)S(C)(=O)=O (top concentration 10000 nM) | 4.92 | -0.28 | 4.52 | 2.02 | 0.82 | -0.08 | 0.62 | -1.18 | 6.62 | -0.38 | 0.12 | 3.82 | -1.08 | 2.82 | 2.42 | -0.08 | 7.22 | 5.12 | 4.62 | -3.28
5 | CC(=O)O[C@]1(C(C)=O)CC[C@H]2[C@@H]3C=C(C)C4=CC(=O)CC[C@]4(C)[C@H]3CC[C@@]21C [Megestrol_acetate] (top concentration 10000 nM) | -0.48 | -0.28 | 0.42 | -0.58 | 0.52 | 1.62 | 16.8 | -0.58 | -0.58 | -0.58 | 3.92 | -0.38 | -0.58 | 0.32 | 6.52 | 1.82 | 0.32 | 0.52 | 0.32 | 7.82
6 | Cn1cc(-c2ccc(F)c(C(F)(F)F)c2)nc1C1CCN(c2ncnc3[nH]ncc23)CC1 (top concentration 10000 nM) | 0.06 | 0.86 | 3.76 | 1.56 | -0.14 | -0.14 | 1.16 | -0.14 | -0.14 | 13.3 | 0.66 | 5.56 | -0.14 | 0.36 | 0.46 | -0.14 | 1.66 | -0.14 | 8.76 | -0.14
7 | O=C(O)c1ccc2c(c1)nc(Nc1cccc(Cl)c1)c1ccncc12 [Silmitasertib] (top concentration 10000 nM) | 6.2 | 4.1 | 15.8 | 4 | 6.3 | 2.3 | 3.6 | 1.9 | 3.8 | -1.4 | 3.3 | 3.9 | 3.7 | 4.8 | 2.2 | 0.6 | 3.6 | 4.8 | 3 | -2.2
8 | C[C@@H]1COC(Nc2ccc3ncnc(Nc4ccc(OCc5nccs5)c(Cl)c4)c3c2)=N1 [Varlitinib] (top concentration 10000 nM) | 2.92 | -0.18 | 18.8 | 2.12 | 0.92 | -0.18 | -0.18 | 1.92 | -0.18 | -0.18 | 4.72 | 20.2 | 0.02 | -0.18 | -0.18 | 3.02 | 0.12 | 7.62 | 6.82 | 3.02
9 | Cc1ncc(Cl)cc1NCc1ccc(C(=O)N[C@@H](CC2CCCC2)C(=O)NC2CC2)s1 (top concentration 5000 nM) | 4.16 | -0.94 | 14.3 | 1.86 | 2.26 | 1.36 | -0.94 | 1.36 | 2.46 | 4.56 | -0.84 | -0.94 | -0.94 | 3.96 | -0.94 | -0.94 | -0.24 | -0.84 | 3.46 | -0.94
10 | O=C(Nc1c[nH]nc1-c1nc2ccc(CN3CCOCC3)cc2[nH]1)NC1CC1 [AT9283] (top concentration 1000 nM) | 15.6 | 12.5 | 11.3 | 11.7 | 6.22 | 1.02 | -0.68 | -1.48 | 8.42 | 6.22 | 10.7 | 12.4 | 1.02 | 8.22 | 9.02 | 13 | 15.9 | 11.6 | 12.6 | 7.32
11 | Cn1cc(CNCC2CCN(c3ncc(C(=O)NO)cn3)CC2)c2ccccc21 [Quisinostat] (top concentration 1000 nM) | 5.68 | 3.98 | 12.3 | 1.48 | 6.38 | 6.78 | 2.98 | 6.88 | 7.38 | 12.4 | 9.78 | 7.38 | -2.02 | 6.28 | -0.72 | 3.78 | 2.88 | -1.12 | 10.1 | 5.08
12 | NC1(C(=O)N[C@@H](CCO)c2ccc(Cl)cc2)CCN(c2ncnc3[nH]ccc23)CC1 [AZD-5363] (top concentration 10000 nM) | 3.52 | 9.32 | 4.72 | 4.02 | 5.92 | -1.08 | -1.88 | 1.82 | 1.62 | 7.32 | 3.52 | 1.22 | 0.12 | 13.3 | 4.72 | 3.52 | -0.88 | 11.3 | 0.42 | 6.62
13 | Nc1cc(C(F)(F)F)c(-c2cc(N3CCOCC3)nc(N3CCOCC3)n2)cn1 [Buparlisib] (top concentration 10000 nM) | 8.28 | 5.28 | 4.58 | 3.58 | 5.68 | 0.38 | -0.32 | 6.38 | 2.48 | 2.08 | 6.58 | 6.08 | 2.68 | 4.08 | 1.28 | 3.28 | 6.48 | 5.18 | 4.38 | -1.82
14 | CC(C)(C)Cn1c(N)nc2ccc(-c3[nH]c(C(C)(C)C)nc3-c3ccc(F)cc3)nc21 [Ralimetinib] (top concentration 10000 nM) | 3.36 | 2.26 | 4.06 | 2.56 | 7.86 | 4.16 | 5.36 | 3.66 | 0.86 | 1.56 | 8.76 | 4.76 | -0.14 | 12.6 | -0.84 | 1.86 | 2.26 | 2.36 | 7.36 | -0.74
15 | CN[C@@H]1C[C@H]2O[C@@](C)([C@@H]1OC)n1c3ccccc3c3c4c(c5c6ccccc6n2c5c31)C(=O)N[C@H]4O [UCN-01] (top concentration 10000 nM) | 3.14 | 6.04 | 6.64 | 1.44 | 4.34 | -1.46 | 7.44 | 6.04 | 6.94 | 2.84 | 9.34 | 1.54 | 0.94 | 8.64 | 0.94 | 5.94 | -0.66 | 5.24 | 2.64 | -0.36
16 | CCN(CC)CCNC(=O)c1c(C)[nH]c(/C=C2\C(=O)Nc3ccc(F)cc32)c1C [Sunitinib] (top concentration 1000 nM) | 0.76 | -1.44 | -1.34 | -1.44 | 5.66 | -0.34 | -1.44 | -1.44 | 10.4 | -1.44 | 0.66 | -0.84 | -1.44 | -1.44 | -1.44 | -1.34 | -0.24 | -1.44 | 6.86 | 3.26
17 | CC(C)[C@@H](CS(=O)(=O)C(C)C)N1C(=O)[C@@](C)(CC(=O)O)C[C@H](c2cccc(Cl)c2)[C@H]1c1ccc(Cl)cc1 [AMG-232] (top concentration 10000 nM) | -8.14 | -7.34 | 11.4 | 9.26 | 8.76 | 8.76 | -8.84 | -9.34 | 10.1 | 12.3 | 13.1 | 11.3 | 3.16 | 8.06 | -8.14 | -8.24 | -6.94 | 8.36 | 16.5 | 6.76
18 | COc1cc(Nc2ncc(F)c(Nc3ccc4c(n3)NC(=O)C(C)(C)O4)n2)cc(OC)c1OC [Tamatinib] (top concentration 10000 nM) | -5.42 | -5.42 | -0.72 | -0.22 | -1.52 | -5.42 | -1.82 | -5.42 | 8.58 | -5.42 | 2.68 | 1.28 | -5.42 | -5.42 | -3.82 | -5.02 | -5.42 | -2.22 | -0.62 | -5.42
